According to US20240059658A1 (Emory University, priority 2019, published 2024):

How the values were obtained:
XIAP = XIAP inhibition / expression (Western blot); type: cell-based; settings: MDM2 reduction
Procedure: (§1) Cells were lysed in a buffer composed of 50 mM Tris, pH 7.6, 150 mM NaCl, 1% Nonidet P-40, 10 mM sodium phosphate, 10 mM NaF, 1 mM sodium orthovanadate, 2 mM phenylmethylsulfonyl fluoride (PMSF), […], 10 μg/mL leupeptin and 10 μg/mL pepstatin. After centrifugation, the clarified cell lysate was separated from the pellet of cell debris, and then incubated with 15 μL Protein G/Protein A-agarose and 1 μg of antibodies, overnight at 4° C. For the Western blot, the resulting cell lysates or immunoprecipitates were resolved by SDS-PAGE. They were then transferred to a nitrocellulose filter and probed with the specific antibodies as listed in the supplemental Materials section. Finally, proteins were visualized with a chemiluminescent detection system.

EU-1 = experiment: WST cytotoxicity assay, cancer cell EU-1; type: cell-based, human; settings: Homo sapiens, EU-1, EU-1; no other cell line named in the cell; read-out: Cancer cell (EU-1) cytotoxicity IC50
How it was run: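 Pediatric ALL and NB lines grown in RPMI 1640 with 10% FBS at 37 °C, 5% CO2. Cells were exposed to a range of compound concentrations for 20 h, then WST (25 μg/well) was added for a further 4 h. OD read at 450 nm against a 620 nm reference.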

MDM2 = target: T1, MDM2 (Homo sapiens, UniProt Q00987); experiment: MDM2 reduction / expression (Western blot); type: cell-based; settings: words or +/− grades, key not given
T1 construct: ubiquitination of endogenous MDM2 in EU-1 cells; endogenous in cells; host or cells: EU-1 (ALL) cells
Procedure: as §1

in vivo = settings: mouse
NB-1643 = experiment: WST cytotoxicity assay, NB-1643; type: cell-based; settings: Homo sapiens; NB-1643 line; read-out: Cancer cell cytotoxicity IC50
Procedure: This study used two ALL cell lines (EU-1 and EU-3) and three NB cell lines (NB-1643, SHEP1 and LA1-55N). All 5 cancer cell lines were established from pediatric ALL or NB patients and were well-characterized for their expression of MDM2 and p53-status, as reported previously. All cell lines were grown in standard culture medium (RPMI 1640 containing 10% FBS, 2 mmol/L L-glutamine, 50 U penicillin and 50 μg/mL streptomycin) at 37° C. in a humidified atmosphere containing 5% CO2.
(§2) The cytotoxic effect of MX 69 and MX69 analogs on cancer cells was determined using the water-soluble tetrazolium salt (WST) assay. Briefly, cells cultured in 96-well microtiter plates were treated with different concentrations of AQ-101 for a 20-h period. WST (25 μg/well) was then added and incubation continued for an additional 4 h, after which optical density (OD) was read with a microplate reader (test wavelength of 450 nm; reference wavelength of 620 nm).

p53 = p53 induction / expression (Western blot); type: cell-based; settings: words or +/− grades, key not given
Procedure: as §1

855 line = experiment: WST cytotoxicity assay, 855 line; type: cell-based; settings: read-out: Cancer cell cytotoxicity IC50
Procedure: as §2

MDM2 RING protein [1] = target: T2, MDM2 RING protein (Homo sapiens, UniProt Q00987); experiment: Compound-protein binding (ITC) to MDM2 RING protein; settings: MDM2 RING domain
Procedure: Isothermal titration calorimetry (ITC) assay was performed using the auto-iTC200 instrument (MicroCal, GE). MDM2 protein was loaded into a 96 DeepWell PP plate, and then compound was titrated stepwise into the protein sample cell using a syringe, for a total of 16 injections (except for the first injection, which was 0.4 μl). The equilibrium time between two adjacent injections was 210 s. The binding stoichiometry (n), binding constant (Kd), and thermodynamic parameters (ΔH and ΔS) were determined by fitting the titration curve to a one-site binding mode, using the Origin software provided by the manufacturer.

697 cell line = experiment: WST cytotoxicity assay, 697 cell line; type: cell-based; settings: read-out: Cancer cell cytotoxicity IC50
Procedure: as §2

normal cells/tissues = settings: Gu et al. Cancer Cell 2016; cited from earlier work
MDM2 RING protein [2] = target: T2, MDM2 RING protein; settings: Gu et al. Cancer Cell 2016; cited from earlier work
caspases-3, -9 and PARP = experiment: Western blot, cleavage of caspases-3, -9 and PARP in EU-1 cells; type: cell-based
Procedure: as §1

[3] = tested on: human normal bone marrow mononuclear (NBMM) cells; experiment: Clonogenic assay for CFU-GM and BFU-E (normal hematopoiesis); type: cell-based; settings: 1 μM, 14 days
Procedure: For colony formation of normal human hematopoiesis assay, a bottom layer of low-melting-point, 0.5% agarose (in RPMI 1640 medium plus 10% FBS) was poured into gridded 35 mm dishes and allowed to gel. Cells were cultured in a top layer of 0.35% agarose/medium at 37° C. in a humidified atmosphere containing 5% CO2. After 2-3 weeks, cultures were fixed with formalin and colonies scored.

T1 sequence (Q00987 whole entry): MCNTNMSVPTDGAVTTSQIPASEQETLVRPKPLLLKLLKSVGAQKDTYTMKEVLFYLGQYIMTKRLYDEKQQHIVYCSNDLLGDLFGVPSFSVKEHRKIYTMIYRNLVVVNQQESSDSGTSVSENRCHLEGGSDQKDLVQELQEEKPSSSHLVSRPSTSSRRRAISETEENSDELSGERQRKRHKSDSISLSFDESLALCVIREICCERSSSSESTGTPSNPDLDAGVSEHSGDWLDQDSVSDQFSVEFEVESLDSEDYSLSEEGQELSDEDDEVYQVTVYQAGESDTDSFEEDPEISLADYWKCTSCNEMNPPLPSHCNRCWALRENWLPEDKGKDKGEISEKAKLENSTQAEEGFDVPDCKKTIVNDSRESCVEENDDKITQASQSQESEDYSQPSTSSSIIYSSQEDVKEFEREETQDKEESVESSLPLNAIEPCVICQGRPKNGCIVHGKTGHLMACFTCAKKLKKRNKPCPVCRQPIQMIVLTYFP
T2 sequence (Q00987 438-479 limits assumed): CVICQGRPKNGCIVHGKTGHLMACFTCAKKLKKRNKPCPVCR

Row | SMILES | MDM2 reduction (MDM2) | IC50 (EU-1) [nM] | IC50 (NB-1643) [nM] | p53 induction (p53) | IC50 (855 line) [nM] | further results
1 | COC(=O)c1ccc(C2Nc3ccc(S(=O)(=O)Nc4ccc(C)c(C)c4)cc3[C@H]3OCC[C@@H]23)cc1 (some centres unmarked) [Compound 69L1] |  | 1500 to 6000 |  |  |  | MTD (in vivo): 300 mg/kg
2 | Cc1ccc(NS(=O)(=O)c2ccc3c(c2)C2OCC[C@H]2[C@H](C2CCCCC2)N3)cc1C (some centres unmarked) [Compound 69L53, 4-cyclohexyl-N-(3,4-dimethylphenyl)-2,3,3a,4,5,9b-hexahydrofuran[3,2-c]quinolone-8-sulfonamine] | inhibition |  | 1730 | induction | 800 | MTD (in vivo): 300 mg/kg; MDM2 binding affinity as compared with MX69 (MDM2 RING protein [1]): Increased MDM2 Binding Affinity
3 | Cc1ccc(NS(=O)(=O)c2ccc3c(c2)C2OCC[C@H]2[C@H](C2CCN(C(=O)OC(C)(C)C)CC2)N3)cc1C (some centres unmarked) [Compound 69L64] |  |  |  | induction | 1350 | IC50 (697 cell line): 280 nM
4 | Cc1ccc(NS(=O)(=O)c2ccc3c(c2)[C@H]2C=CC[C@H]2[C@H](c2ccc(C(=O)O)cc2)N3)cc1C [MX69, reference compound] |  | 7000 |  |  |  | MTD (in vivo): 200 mg/kg; Toxicity on normal cells/tissues (normal cells/tissues): minimal toxicity; Binding to the RING domain of MDM2 (MDM2 RING protein [2]): specifically binds to the RING domain of MDM2
5 | Cc1ccc(NS(=O)(=O)c2ccc3c(c2)C2OCC[C@H]2[C@H](C2CCOCC2)N3)cc1C (some centres unmarked) [Compound 69L58, N-(3,4-dimethylphenyl)-4-(tetrahydro-2H-pyran-4-yl)-2,3,3a,4,5,9b-hexahydrofuran[3,2-c]quinolone-8-sulfonamine] | inhibition |  | 2630 | induction | 1610 | 
6 | CC(=O)c1ccc(C2Nc3ccc(S(=O)(=O)Nc4ccc(C)c(C)c4)cc3[C@H]3OCC[C@@H]23)cc1 (some centres unmarked) [Compound 69L38] | No MDM2 |  | 1820 |  | 490 | 
7 | Cc1ccc(NS(=O)(=O)c2ccc3c(c2)C2OCCC2C(c2ccc(C(=O)C(C)C)cc2)N3)cc1C (centres unmarked) [McX69-102] |  |  |  |  |  | Time after treatment at which cleavage of caspases-3, -9 and PARP can be detected (caspases-3, -9 and PARP): 8 h
8 | COC(=O)c1ccc([C@H]2CC(O)c3cc(S(=O)(=O)Nc4ccc(C)c(C)c4)ccc3N2)cc1 (some centres unmarked) [Compound 69L39] | No MDM2 |  | 1610 |  | 680 | 
9 | Cc1ccc(NS(=O)(=O)c2ccc3c(c2)C2OCC[C@H]2C(c2cccc4ccccc24)N3)cc1C (some centres unmarked) [Compound 69L63] |  |  |  | induction | 6070 | IC50 (697 cell line): 3940 nM
10 | O=S(=O)(Nc1ccc2c(c1)CCCC2)c1ccc2c(c1)C1OCC[C@H]1[C@H](C1CCCCC1)N2 (some centres unmarked) [Compound 69L59, 4-cyclohexyl-N-(5,6,7,8-tetrahydronaphthalen-2-yl)-2,3,3a,4,5,9b-hexahydrofuran[3,2-c]quinolone-8-sulfonamine] | No MDM2 |  | 3090 |  | 2310 | 
11 | COc1cccc2c1C(=O)c1c(O)c3c(c(O)c1C2=O)C[C@@](O)(C(=O)CO)C[C@@H]3O[C@H]1C[C@H](N)[C@H](O)[C@H](C)O1 [Dox, doxorubicin] |  |  |  |  |  | BFU-E colony numbers and size [3]: significantly reduced; CFU-GM colony numbers and size [3]: significantly reduced

The next lines start with results.

Row | MDM2 reduction (MDM2) | SMILES | IC50 (EU-1) [nM] | IC50 (NB-1643) [nM] | p53 induction (p53) | IC50 (855 line) [nM] | further results
12 | inhibition | Cc1ccc(NS(=O)(=O)c2ccc3c(c2)C(=O)CC(c2cccc(C(=O)C(C)C)c2)N3)cc1C (centres unmarked) [Compound 69L114, N-(3,4-dimethylphenyl)-2-(3-isobutyrylphenyl)-4-oxo-1,2,3,4-tetrahydroquinoline-6-sulfonamide] | < 100 |  |  |  | XIAP inhibition (XIAP): inhibition
13 | inhibition | CC(=O)c1cccc(NS(=O)(=O)c2ccc3c(c2)C(=O)CC(c2ccc(C(=O)C(C)C)cc2)N3)c1 (centres unmarked) [Compound 69L113, N-(3-acetylphenyl)-2-(4-isobutyrylphenyl)-4-oxo-1,2,3,4-tetrahydro-quinoline-6-sulfonamide] | < 100 |  |  |  | XIAP inhibition (XIAP): inhibition
14 | inhibition | Cc1ccc(NS(=O)(=O)c2ccc3c(c2)[C@H]2NCC[C@H]2[C@@H](c2ccc(C(=O)C(C)C)cc2)N3)cc1C [Compound 69L81] | 3200 |  | inhibition |  | XIAP inhibition (XIAP): inhibition
15 | No MDM2 | Cc1ccc(NS(=O)(=O)c2ccc3c(c2)C2OCC[C@H]2C2(CCCCC2)N3)cc1C (some centres unmarked) [Compound 69L62] |  | 1300 |  | 980 | IC50 (697 cell line): 490 nM
16 | Increase | O=S(=O)(Nc1ccc(Cl)c(Cl)c1)c1ccc2c(c1)C1OCC[C@H]1[C@H](C1CCCCC1)N2 (some centres unmarked) [Compound 69L60, 4-cyclohexyl-N-(3,4-dichlorophenyl)-2,3,3a,4,5,9b-hexahydrofuran[3,2-c]quinolone-8-sulfonamine] |  | 5650 |  | 1810 | IC50 (697 cell line): 2730 nM
17 | inhibition | Cc1ccc(NS(=O)(=O)c2ccc3c(c2)C(=O)C[C@@H](c2ccc(C(=O)C(C)C)cc2)N3)cc1C (stereo in doubt) [Compound 69L84, N-(3,4-dimethylphenyl)-2-(4-isobutyrylphenyl)-4-oxo-1,2,3,4-tetrahydroquinoline-6-sulfonamide] | 200 to 600 |  | activation |  | XIAP inhibition (XIAP): inhibition
18 | inhibition | CC(=O)c1ccc(C2CC(=O)c3cc(S(=O)(=O)Nc4ccc(C)c(C)c4)ccc3N2)cc1 (centres unmarked) [Compound 69L83, 2-(4-acetylphenyl)-N-(3,4-dimethylphenyl)-4-oxo-1,2,3,4-tetrahydroquinoline-6-sulfonamide] | 1170 |  | inhibition |  | 
19 | inhibition | Cc1ccc(NS(=O)(=O)c2ccc3c(c2)C2OCC[C@H]2C(c2ccc(C(O)C(C)C)cc2)N3)cc1C (stereo in doubt) [Compound 69L87, N-(3,4-dimethylphenyl)-4(4-(1-hydroxy-2-methylpropyl)phenyl)-2,3,3a,4,5,9b-hexahydrofuro[3,2-c]quinoline-8-sulfonamide] | 1980 |  | inhibition |  | 
20 | inhibition | CC(=O)c1cccc(NS(=O)(=O)c2ccc3c(c2)[C@H]2OCC[C@H]2C(c2ccc(C(=O)C(C)C)cc2)N3)c1 (stereo in doubt) [Compound 69L102, N-(3-acetylphenyl)-4-(4-isobutyrylphenyl)-2,3,3a,4,5,9b-hexahydrofuro[3,2-c]quinoline-8-sulfonamide] | 230 |  |  |  | XIAP inhibition (XIAP): inhibition
